Key:
[1] = tested on: fungal strains (Candida spp., Cryptococcus spp., Aspergillus spp., Fusarium spp.); assay: MIC determination, summary statements over the strain panel; format: cell-based; conditions: for overall assessment as antifungals: panel of twenty fungal strains (Table 1)
[2] = tested on: C. auris AR Bank # 0390 (strain L); assay: MIC determination (broth microdilution); format: cell-based, Candida auris; conditions: strain L = C. auris AR Bank # 0390; MIC-0; 48 h (CAS read at 24 h); Table 1 row printed without letter, below L; also in Table 2
[3] = tested on: A. flavus ATCC MYA-3631 (strain S); assay: MIC determination (broth microdilution); format: cell-based, Aspergillus flavus; conditions: strain S = A. flavus ATCC MYA-3631; MIC-0; 72 h at 35° C.
[4] = tested on: C. neoformans CN1 (strain N); assay: MIC determination (broth microdilution); format: cell-based, Cryptococcus neoformans; conditions: MIC-0, 72 h at 35° C.
[5] = tested on: C. parapsilosis ATCC 22019 (strain J); assay: MIC determination (broth microdilution); format: cell-based; conditions: strain J = C. parapsilosis ATCC 22019; MIC-0; 48 h; listed as printed beside letter K
[6] = tested on: C. albicans ATCC MYA-2876(S) (strain E); assay: MIC determination (broth microdilution); format: cell-based, Candida albicans; conditions: strain E = C. albicans ATCC MYA-2876(S); MIC-0; 48 h; listed as printed beside letter F
[7] = tested on: C. albicans ATCC 64124(R) (strain F); format: cell-based, Candida albicans; conditions: strain F = C. albicans ATCC 64124(R); MIC-0; 48 h; listed as printed beside letter G
[8] = tested on: C. neoformans ATCC MYA-85 (strain M); assay: MIC determination (broth microdilution); format: cell-based, Cryptococcus neoformans; conditions: strain M = C. neoformans ATCC MYA-85; MIC-0; 72 h at 35° C.
[9] = tested on: C. albicans ATCC 10231(R) (strain B); format: cell-based, Candida albicans
[10] = tested on: C. neoformans CN2 (strain O); assay: MIC determination (broth microdilution); format: cell-based, Cryptococcus neoformans; conditions: MIC-0, 72 h at 35° C.
[11] = tested on: A. nidulans ATCC 38163 (strain Q); assay: MIC determination (broth microdilution); format: cell-based, Aspergillus nidulans; conditions: strain Q = A. nidulans ATCC 38163; MIC-0; 72 h at 35° C.
[12] = tested on: C. albicans ATCC MYA-1237(R) (strain C); format: cell-based, Candida albicans; conditions: strain C = C. albicans ATCC MYA-1237(R); MIC-0; 48 h; listed as printed beside letter D
[13] = tested on: C. albicans ATCC 90819(R) (strain G); format: cell-based, Candida albicans; conditions: strain G = C. albicans ATCC 90819(R); MIC-0; 48 h; listed as printed without letter, below G
[14] = tested on: C. albicans ATCC MYA-2310(S) (strain D); assay: MIC determination (broth microdilution); format: cell-based, Candida albicans; conditions: strain D = C. albicans ATCC MYA-2310(S); MIC-0; 48 h; listed as printed beside letter E
[15] = tested on: C. albicans ATCC MYA-1003(R) (strain A); format: cell-based, Candida albicans; conditions: strain A = C. albicans ATCC MYA-1003(R); MIC-0; 48 h at 35° C.
[16] = tested on: A. terreus ATCC MYA-3633 (strain R); format: cell-based, Aspergillus terreus; conditions: strain R = A. terreus ATCC MYA-3633; MIC-0; 72 h at 35° C.
[17] = tested on: C. auris AR Bank # 0384 (strain K); assay: MIC determination (broth microdilution); format: cell-based, Candida auris; conditions: strain K = C. auris AR Bank # 0384; MIC-0; 48 h (CAS read at 24 h); Table 1; also in Table 2
[18] = tested on: C. neoformans CN3 (strain P); assay: MIC determination (broth microdilution); format: cell-based, Cryptococcus neoformans; conditions: MIC-0, 72 h at 35° C.
[19] = tested on: C. glabrata ATCC 2001 (strain H); assay: MIC determination (broth microdilution); format: cell-based, Candida glabrata; conditions: strain H = C. glabrata ATCC 2001; MIC-0; 48 h at 35° C.
[20] = tested on: C. krusei ATCC 6258 (strain I); assay: MIC determination (broth microdilution); format: cell-based; conditions: strain I = C. krusei ATCC 6258; MIC-0; 48 h; listed as split over r16 and r17 (r17 printed beside letter J)
[21] = tested on: F. graminearum 053 (strain T); format: cell-based, Fusarium graminearum; conditions: strain T = F. graminearum 053; MIC-0; room temperature, 5 days

**Q.** Which results are given for `CC1CCC(C)[P+]1([Au-][Cl])c1ccccc1[P+]1([Au-][Cl])C(C)CCC1C` [Compound 5, [1,2-bis[(2R,5R)-2,5-dimethylphospholano]benzene]digold(1)]?
**A.** antifungal activity ([1]; Aspergillus spp., Fusarium spp. and most of the non-albicans Candida strains): inactive; overall assessment as antifungals [1]: poor antifungals; MIC [2]: > 31.3 µg/mL; MIC (in parentheses) [2]: > 40.6 µM; MIC [3]: > 31.3 µg/mL; MIC (in parentheses) [3]: > 40.6 µM; MIC [4]: 15.6 µg/mL; MIC (in parentheses) [4]: 20.2 µM; MIC [5]: 15.6 µg/mL; MIC (in parentheses) [5]: 20.2 µM; MIC [6]: 15.6 µg/mL; MIC (in parentheses) [6]: 20.2 µM; MIC [7]: 15.6 µg/mL; MIC (in parentheses) [7]: 20.2 µM; MIC [8]: 0.12 µg/mL; MIC (in parentheses) [8]: 0.2 µM; MIC [9]: 31.3 (40.6) μg/mL; MIC (in parentheses) [9]: 31.3 (40.6) μM; MIC [10]: 7.8 µg/mL; MIC (in parentheses) [10]: 10.1 µM; MIC [11]: > 31.3 µg/mL; MIC (in parentheses) [11]: > 40.6 µM; MIC [12]: 15.6 µg/mL; MIC (in parentheses) [12]: 20.2 µM; MIC [13]: 7.8 µg/mL; MIC (in parentheses) [13]: 10.1 µM; MIC [14]: 7.8 µg/mL; MIC (in parentheses) [14]: 10.1 µM; MIC [15]: 3.9 µg/mL; MIC (in parentheses) [15]: 5.1 µM; MIC [16]: > 31.3 µg/mL; MIC (in parentheses) [16]: > 40.6 µM; MIC [17]: > 31.3 µg/mL; MIC (in parentheses) [17]: > 40.6 µM; MIC [18]: 7.8 µg/mL; MIC (in parentheses) [18]: 10.1 µM; MIC [19]: 15.6 µg/mL; MIC (in parentheses) [19]: 20.2 µM; MIC [20]: 31.3 µg/mL; MIC (in parentheses) [20]: 40.6 µM; MIC [21]: > 31.3 µg/mL; MIC (in parentheses) [21]: > 40.6 µM

**Q.** What does the source list for `CC1CCC(C)[P+]1([Au-][Cl])c1ccccc1[P+]1([Au-][Cl])C(C)CCC1C` [Compound 3, [1,2-bis[(2S,5S)-2,5-dimethylphospholano]benzene]digold(1)]?
**A.** antifungal activity ([1]; all fungal strains tested, except C. neoformans (strain M)): completely inactive; overall assessment as antifungals [1]: poor antifungals; MIC [2]: > 31.3 µg/mL; MIC (in parentheses) [2]: > 40.6 µM; MIC [3]: > 31.3 µg/mL; MIC (in parentheses) [3]: > 40.6 µM; MIC [4]: > 31.3 µg/mL; MIC (in parentheses) [4]: > 40.6 µM; MIC [5]: > 31.3 µg/mL; MIC (in parentheses) [5]: > 40.6 µM; MIC [6]: 31.3 µg/mL; MIC (in parentheses) [6]: 40.6 µM; MIC [7]: 31.3 µg/mL; MIC (in parentheses) [7]: 40.6 µM; MIC [8]: 1.95 µg/mL; MIC (in parentheses) [8]: 2.5 µM; MIC [9]: >31.3 (40.6) μg/mL; MIC (in parentheses) [9]: >31.3 (40.6) μM; MIC [10]: 31.3 µg/mL; MIC (in parentheses) [10]: 40.6 µM; MIC [11]: > 31.3 µg/mL; MIC (in parentheses) [11]: > 40.6 µM; MIC [12]: > 31.3 µg/mL; MIC (in parentheses) [12]: 40.6 µM; MIC [13]: 31.3 µg/mL; MIC (in parentheses) [13]: 40.6 µM; MIC [14]: 31.3 µg/mL; MIC (in parentheses) [14]: 40.6 µM; MIC [15]: 31.3 µg/mL; MIC (in parentheses) [15]: 40.6 µM; MIC [16]: > 31.3 µg/mL; MIC (in parentheses) [16]: > 40.6 µM; MIC [17]: > 31.3 µg/mL; MIC (in parentheses) [17]: > 40.6 µM; MIC [18]: > 31.3 µg/mL; MIC (in parentheses) [18]: > 40.6 µM; MIC [19]: > 31.3 µg/mL; MIC (in parentheses) [19]: > 40.6 µM; MIC [20]: > 31.3 µg/mL; MIC (in parentheses) [20]: > 40.6 µM; MIC [21]: > 31.3 µg/mL; MIC (in parentheses) [21]: > 40.6 µM

— US11564394B2, “Distorted gold (I)-phosphine complexes and methods for use as antifungal agents” (University of Kentucky Research Foundation, priority 2019, dated 2023)
